{"source": "patent US20220218714A1", "about": "“METHOD OF TREATING CANCER” (Epizyme, Inc., priority 2013, published 2022)", "key": {"SW982 cells [1]": {"tested_on": "SW982 cells", "conditions": "SW982 in vitro culture"}, "HS-SY-II cells [2]": {"tested_on": "HS-SY-II cells", "experiment": "Gene expression changes in vitro (RT-PCR, normalized to GAPDH)", "assay_type": "cell-based, human", "conditions": "HS-SY-II in vitro culture", "protocol": "ATF3, EGR1, CDKN2A and GAPDH expression were analyzed by using the TaqMan Gene Expression Assays (Life technologies, 4331182) and the TaqMan Probes (Hs00231069_ml, Hs00152928_ml, Hs00233365_ml, and Hs99999905_ml, respectively)."}, "SW982 cells [3]": {"tested_on": "SW982 cells", "experiment": "Adherent cell line 14-day long-term proliferation assay (CellTiter-Glo)", "assay_type": "cell-based, human", "protocol": "(§1) 96-well plating for 7 day assay: For each adherent cell line, plated cells in a volume of 100 μL in 96-well plates, to be treated in triplicate, either in the evening (to treat with compound the following day) or in morning (to treat with compound in the evening), to allow cells to attach to plates before compound treatment.\n(§2) 6-well plates to be split for 7-14 day assay: Plated 2mL of cells at the correct density in each well of the 6-well plate. Calculated the correct density from the 96-well plate growth curve by multiplying the 96-well density by 30. The factor 30 came from growth area of the 6-well plate divided by the growth area of the 96-well plate (9.5cm^2/0.32cm^2=29.7, rounded up to 30), which corresponds to 30-fold more surface area in a 6-well vs. a 96-well plate.\n(§3) Day 0: Treated with compound or DMSO by removing media and adding back either […] (for 96-well plate) or 2 mL (for 6-well plate) media with the correct dilutions of compound/DMSO. Table 1 includes an example of 96-well plate map. Plates were incubated for 96 hours.\n(§4) Read one 96-well plate with CellTiter-Glo®, for a Day 0 reading (media change not necessary for this plate).\n(§5) Day 4: Read one 96-well plate with CellTiter-Glo® for a Day 4 reading (media change not necessary for this plate before reading). Replaced media with fresh media containing compound on Day 4 in 96-well plates and 6-well plates.\n(§6) Day 7: read final 96-well plate with CellTiter-Glo®.\n(§7) Counted individual wells of 6-well plates, and replated cells to initial plating density in 96-well plates, as described above.\n(§8) Repeated steps for Days 0-7 for Days 7-14 of the proliferation assay.\n(§9) Particularly, approximately 12 hours before compound treatment, HS-SY-II or SW982 cells were plated at the density of 24,000 cells/well and 7,500 cells/well, respectively in 6-well plates. On day 0, cells were treated with either DMSO or compound starting at 10 μmol/L and decreasing in fourfold dilutions. On day 7, the cells in 6-well plates were trypsinized, counted by TC10 automated cell counter (Bio-Rad, Richmond, Calif.) and replated at the density of 800 cells/well and 250 cells/well for HS-SY-II and SW982, respectively in 96-well plates in triplicate. The cells were allowed to adhere to the plate overnight, and treated with either DMSO or compound as on Day 0. On days 0, 7, 11, and 14, cell viability was determined by CellTiter-Glo® Luminescent Cell Viability Assay (Promega) with EnVision 2103 Multilabel Reader (Perkin-Elmer, Wellesley, Mass.). Compound/media was changed with new one on Day 4 and 11. The ratios of the measured values on Days 7, 11, and 14 to that of day 7 were used to plot proliferation from day 7 to day 14, and to calculate the IC50 values on Day 14. […]"}, "HS-SY-II cells [4]": {"tested_on": "HS-SY-II cells", "experiment": "Adherent cell line 14-day long-term proliferation assay (CellTiter-Glo)", "assay_type": "cell-based, human", "protocol": "as §1, §2, §3, §4, §5, §6, §7, §8, §9"}}}
{"compound": "CCN(c1cc(-c2ccc(CN3CCOCC3)cc2)cc(C(=O)NCc2c(C)cc(C)[nH]c2=O)c1C)[C@H]1CC[C@H](N(C)C)CC1", "note": "[Compound C]", "values": [{"measurement": "ATF3 and EGR1 expression", "setting": "SW982 cells [1]", "value": "not in SW982"}, {"measurement": "ATF3 and EGR1 expression", "setting": "HS-SY-II cells [2]", "value": "upregulated"}, {"measurement": "CDKN2A expression", "setting": "HS-SY-II cells [2]", "value": "Dose- and time-dependent CDKN2A upregulation"}]}
{"compound": "CCN(c1cc(-c2ccc(CN3CCOCC3)cc2)cc(C(=O)NCc2c(C)cc(C)[nH]c2=O)c1C)[C@H]1CC[C@H](N(C)C)CC1", "note": "[Compound E]", "values": [{"measurement": "sensitivity (cell proliferation / viability)", "setting": "SW982 cells [3]", "value": "did not"}, {"measurement": "sensitivity (cell proliferation / viability)", "setting": "HS-SY-II cells [4]", "value": "high sensitivity"}]}
